{"source": "patent US11760733B2", "about": "“Small molecule regulators of mitochondrial fusion and methods of use thereof” (Washington University, priority 2017, dated 2023)", "key": {"Mfn2 HR2 target peptide": {"target": "T1, Mfn2 HR2 target peptide (Homo sapiens, UniProt O95140)", "T1 construct": "Gly linker (GGGG after the His tag)", "T1 sequence (O95140 with tags, fused parts or gaps limits assumed)": "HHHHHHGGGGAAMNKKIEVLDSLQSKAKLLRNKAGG", "experiment": "HR1 peptide-HR2 target binding assay", "conditions": "in vitro binding assay devoid of cellular kinases", "from_the_text": "The Mfn-derived fusion-promoting and -inhibiting mini-peptides (simulated to obtain the chemical Mfn agonists in TABLE 1 and TABLE 2) were modified from amino acid heptad repeats (HR) in the HR1 domain and predicted to interact with their counterparts in the carboxyl terminus HR2 domain within the Mfn stalk region (see e.g., FIG. 1, top panel). A high-throughput binding assay was designed whereby the target HR2 peptide sequences, modified to include amino terminal 6×His tags and Gly linkers, were bonded to Ni-chelate resin (20 μg/ml) and used as immobilized “receptor” for amino-FITC-tagged Mfn2 374-384 (agonist ligand) in which the Ser analogous to Ser378 was replaced with Asp to confer the negative charge essential for activity. For antagonist studies the ligand was amino-FITC-tagged Mfn2 406-418. The FITC peptide ligands are suspended at 1 mM in 30% DMSO, 70% water (to minimize spontaneous aggregation) and diluted into binding buffer (de-ionized water) to a final concentration of 25 μM in the presence or absence of competing compound. Dose-dependent loss of resin-bound FITC signal (485 nm excitation/538 nm emission) measured in a 96 well spectrofluorometer represents binding of compound to its HR2 target (see e.g., FIG. 10, FIG. 11). Either the ligand peptide or the receptor peptide can be modified to represent mutations, variations, or posttranslational modifications of Mfn2. […]\nTarget HR2 peptide sequence modified to include amino terminal 6×His tags and Gly linkers, were bonded to Ni-NTA resin (4.4 μg/ml) (Quiagen) and used as immobilized “receptor” for amino-FITC-tagged Mfn2 374-384 (ligand) in which the Ser analogous to Ser378 was replaced with Asp to confer the negative charge essential for activity. […] Resin-bound FITC signal (485 nm excitation/538 nm emission) measured in a 96 well spectrofluorometer (Spectramax M5e, Molecular Devices) represented binding to HR2 target. Competition binding isotherms were plotted and IC50 values calculated using Prism 7 (Graph Pad)."}, "[1]": {"system": "MFN2 T105M sciatic nerves", "experiment": "Sciatic nerve axonal mitochondrial motility, agonist applied to nerve", "conditions": "MFN2 T105M mouse sciatic nerve", "description": "Sciatic nerves of 12-18 week old male or female MFN2 T105M mice were removed en bloc with the lumbar spine and axotomy at the tibial nerve, stained with TMEM ([…]) for 30 minutes in prewarmed Neurobasal Medium without phenol red (Thermo Fisher Scientific) at room temperature, washed, and maintained on the stage of a Nikon A1Rsi Confocal Microscope at 37 degrees C. for time-lapse confocal studies. Images were acquired with a 40× oil immersion objective at 1 frame every 5 or 10 seconds for sequential 10 minute periods. Mitofusin agonist chimera B-A/I was added after the first 10 minute imaging period (final concentrations of […]) and nerve axons imaged for another 40 minutes. Because there was no difference in mitochondrial trafficking or response to mitofusin agonist between male and female mice, the data were combined."}, "Plasma stability": {"experiment": "Plasma stability", "type": "in vitro ADME", "description": "(§1) Plasma protein binding was measured using equilibrium dialysis; % bound=(1−[free compound in dialysate]/[total compound in retentate])×100. Plasma stability of […] compound in clarified freeze-thawed plasma was assessed by LC-MS/MS of supernatants after protein precipitation; 120 min data are reported for studies including 0, 10, 30, 60, and 120 min. Microsome stability of […] compound in liver microsomes (0.5 mg/ml) after 0, 5, 10, 20, 30, 60 min. incubation was assessed by LC/MS/MS of reaction extracts."}, "[2]": {"experiment": "Solubility in 50 mM phosphate buffer pH 7.4", "type": "physicochemical"}, "[3]": {"experiment": "Liver microsome stability", "type": "in vitro ADME, human", "description": "as §1"}, "CMT2A MFN2 T105M mice": {"system": "CMT2A MFN2 T105M mice", "experiment": "In vivo sciatic nerve mitochondrial motility in CMT2A mice", "set-up": "species or system mouse", "conditions": "IM 2 mg/kg twice, assessed 4 hours later", "description": "Sciatic nerve mitochondrial motility was measured 4 hours later. Results described in FIG. 58 are for 2 CMT2A mice per group."}, "Mfn2 null MEFs": {"system": "Mfn2 null MEFs", "experiment": "Mitochondrial elongation (aspect ratio) fusogenicity assay", "type": "cell-based, mouse", "from_the_text": "A cultured murine embryonic fibroblast assay system was used in which mitochondrial elongation (an increase in aspect ratio) reflects enhanced mitochondrial fusion.\nA pharmacophore model was generated based on the interactions of HR1 and HR2 domains in the calculated structural model of Mfn2 in the closed conformation. The key features included hydrophobic interactions involving Mfn2 HR1: Val372 and Met376, and aromatic interactions and hydrogen bonding involving Mfn2 HR1 His380. […] A library comprising ˜14 million commercially available compounds was prepared in silico and evaluated using PHASE to fit these criteria. Top ranked hits were clustered, and filtered based on pharmacological properties using Qikprop. The top 55 (see TABLE 4) commercially available small molecules conforming to the model were selected for functional screening and purchased in 1 mg aliquots. Each compound was dissolved to a stock concentration of 10 mM in DMSO and applied to Mfn2 null MEFs overnight at a final concentration of 1 mM. […] Images were acquired by confocal microscopy. Each compound was scored for fusogenicity (see e.g., FIG. 24A) and % cell death (see e.g., FIG. 24B).\nWild-type MEFs were prepared from E10.5 c57/bl6 mouse embryos. […] MEFs were subcultured in DMEM (4.5 g/L glucose) plus 10% fetal bovine serum, 1× nonessential amino acids, 2 mM L-glutamine, 100U/ml penicillin and 100 ug/ml streptomycin.\nCells were excited with 408 nm (Hoechst), […] (MitoTracker Green and Calcein AM, GFP), or 637 nm (TMRE, MitoTracker Orange, Ethidium homodimer-1, and AF594-Dextran) laser diodes. For mitochondrial elongation studies mitochondrial aspect ratio (long axis/short axis) was calculated using automated edge detection and Image J software. Mitochondrial depolarization was calculated as % of green mitochondria visualized on MitoTracker Green and TMRE merged images, expressed as green/(green+yellow mitochondria)×100."}, "[4]": {"system": "MFN2 Asp378 and Ala378 mutants", "experiment": "Mitochondrial fusion in cells expressing MFN2 Ser378 mutants", "type": "cell-based, human", "conditions": "phosphomimic Asp378 vs nonphosphorylatable Ala378", "from_the_text": "On the basis of fluorescence resonance energy transfer (FRET) analysis of MFN2 labeled at the N and C termini, mitofusin agonists promoted an open MFN2 conformation favoring mitochondrial fusion, with a rank order paralleling that for HR2 binding and mitochondrial fusion (see e.g., FIG. 11G; compare to FIG. 11B and FIG. 11C), supporting allosteric activation.\nHuman Mfn2 Ser378 was mutated to Ala or Asp by site-directed mutagenesis using the QuikChange Lightning kit (Agilent Technologies Inc.) and primers: […]\nMfn2 and its mutants were sub-cloned into adenoviral vector Type 5 (dE1/E3) with RGD-fiber modification (Vector Biolabs) using BamHI/XhoI. All constructs were verified by Sanger DNA sequencing. Adeno-viral PINK1 was purchased from Vector Biolabs."}, "[5]": {"system": "Mfn1/Mfn2 double null MEFs", "experiment": "Mitochondrial elongation in Mfn1/Mfn2 double null MEFs", "type": "cell-based, mouse"}, "[6]": {"experiment": "Parallel artificial membrane permeability assay (PAMPA)", "type": "in vitro ADME"}, "P-gp/MDR1": {"target": "P-gp/MDR1 (Homo sapiens, UniProt P08183)", "sequence (P08183 whole entry)": "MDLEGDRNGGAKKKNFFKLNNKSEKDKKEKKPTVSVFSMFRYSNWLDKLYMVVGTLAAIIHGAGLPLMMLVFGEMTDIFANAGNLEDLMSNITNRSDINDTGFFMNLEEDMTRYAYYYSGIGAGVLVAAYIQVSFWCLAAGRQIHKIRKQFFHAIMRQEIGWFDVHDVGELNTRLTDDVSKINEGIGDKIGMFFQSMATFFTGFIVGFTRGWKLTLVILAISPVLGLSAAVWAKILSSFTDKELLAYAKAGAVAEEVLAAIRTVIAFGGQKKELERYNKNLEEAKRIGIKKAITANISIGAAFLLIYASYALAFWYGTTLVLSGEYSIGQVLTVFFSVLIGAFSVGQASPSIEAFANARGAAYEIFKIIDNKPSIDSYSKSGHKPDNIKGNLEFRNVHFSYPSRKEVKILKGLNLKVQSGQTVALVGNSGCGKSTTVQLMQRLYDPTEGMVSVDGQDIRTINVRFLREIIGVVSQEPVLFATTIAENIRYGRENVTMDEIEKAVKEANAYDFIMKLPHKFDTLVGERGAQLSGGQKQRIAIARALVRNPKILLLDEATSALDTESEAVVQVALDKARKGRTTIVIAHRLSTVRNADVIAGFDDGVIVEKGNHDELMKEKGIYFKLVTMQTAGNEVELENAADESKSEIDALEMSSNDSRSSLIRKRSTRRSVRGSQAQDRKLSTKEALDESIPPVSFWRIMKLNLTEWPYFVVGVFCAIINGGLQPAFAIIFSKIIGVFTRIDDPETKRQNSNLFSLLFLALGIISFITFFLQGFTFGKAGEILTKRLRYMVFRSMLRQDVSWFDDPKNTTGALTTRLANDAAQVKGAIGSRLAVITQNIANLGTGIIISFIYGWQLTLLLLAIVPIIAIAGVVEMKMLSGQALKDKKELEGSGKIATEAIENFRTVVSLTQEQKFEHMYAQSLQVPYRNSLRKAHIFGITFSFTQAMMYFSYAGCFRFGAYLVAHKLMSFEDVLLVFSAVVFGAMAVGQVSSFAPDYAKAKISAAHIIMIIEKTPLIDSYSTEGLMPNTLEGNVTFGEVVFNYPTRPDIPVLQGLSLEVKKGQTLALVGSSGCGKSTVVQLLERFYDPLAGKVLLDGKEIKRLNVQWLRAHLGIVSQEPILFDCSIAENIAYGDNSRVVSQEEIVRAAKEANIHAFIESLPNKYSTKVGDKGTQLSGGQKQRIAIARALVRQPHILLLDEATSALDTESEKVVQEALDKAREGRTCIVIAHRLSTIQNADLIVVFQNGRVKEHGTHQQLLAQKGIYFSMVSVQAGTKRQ", "experiment": "P-gp/MDR1 transport", "type": "in vitro ADME"}, "[7]": {"experiment": "In vivo pharmacokinetics in mice", "set-up": "species or system mouse", "conditions": "2 hours after IM administration, 1 mg/kg", "description": "(A) Three mice each were administered 1 mg/kg agonist IV, IP, or IM. Graphs are mean plasma concentration for each administration route. (B) Results for individual mice were administered 1 mg/kg indicated agonist IM."}}, "note": "“Also recorded” adds a separate entry of the source."}
{"compound": "Ser^378 minipeptide: \"smallest fusion promoting minipeptide (residues 374 to 384)\" of MFN2 HR1, with unsubstituted Ser^378 (LIMDSLHMAAR; UniProt O95140 374-384, looked up, fragment)", "values": [{"measurement": "binding of minipeptide to HR2 interacting domain", "setting": "Mfn2 HR2 target peptide", "result": "did not"}]}
{"compound": "CC1CCCCC1NC(=O)NCCSc1nnc(C2CC2)n1-c1ccccc1", "note": "(centres unmarked) [Regeneurin-S]", "values": [{"measurement": "sciatic nerve axonal mitochondrial motility", "setting": "[1]", "result": "rapidly correct mitochondrial dysmotility"}, {"measurement": "plasma stability, in words", "setting": "Plasma stability", "result": "stable in plasma"}, {"measurement": "solubility, in words", "setting": "[2]", "result": "soluble"}, {"measurement": "liver microsome stability, in words", "setting": "[3]", "result": "rapid degradation; also recorded: rapidly degraded by liver microsomes"}]}
{"compound": "O=C(NCCCc1nnc(C2CC2)n1-c1ccccc1)NC1CCOCC1", "note": "[Regeneurin-C/O, 1-(3-(5-cyclopropyl-4-phenyl-4H-1,2,4-triazol-3-yl)propyl)-3-(tetrahydro-2H-pyran-4-yl)urea]", "values": [{"measurement": "sciatic nerve axon mitochondrial motility in vivo", "setting": "CMT2A MFN2 T105M mice", "result": "corrects CMT2A neuronal mitochondrial dymotility in vivo; also recorded: reverses the characteristic mitochondrial immobility in sciatic nerve axons"}]}
{"compound": "Ala^378 minipeptide: MFN2 374-384 minipeptide in which \"Ser^378 was substituted (with Ala, Cys, Asn or Gly)\": the Ala variant (LIMDALHMAAR; UniProt O95140 374-384, looked up, variant S378A)", "values": [{"measurement": "binding of minipeptide to HR2 interacting domain", "setting": "Mfn2 HR2 target peptide", "result": "did not"}]}
{"compound": "Cn1c(CCCNC(=O)NC2CCOCC2)nnc1C1CC1", "note": "[Mitolityn-6, 1-(3-(5-cyclopropyl-4-methyl-4H-1,2,4-triazol-3-yl)propyl)-3-(tetrahydro-2H-pyran-4-yl)urea]", "values": [{"measurement": "potency relative to other compounds, in words", "setting": "Mfn2 null MEFs", "result": "highest potency"}, {"measurement": "liver microsome stability, in words", "setting": "[3]", "result": "stability in the liver microsome assay"}]}
{"compound": "CC1CCCCC1NC(=O)NCCSCc1ccccc1", "note": "(centres unmarked) [compound A, 1-[2-(benzylsulfanyl)ethyl]-3-(2-methylcyclohexyl)urea]", "values": [{"measurement": "selectivity of fusogenic effect for MFN2 Ser378 mutants", "setting": "[4]", "result": "specific for the Asp^378 mutant"}, {"measurement": "fusogenic activity (mitochondrial elongation), in words", "setting": "Mfn2 null MEFs", "result": "induced mitochondrial elongation"}, {"measurement": "mitochondrial elongation in absence of both mitofusins", "setting": "[5]", "result": "did not occur"}]}
{"compound": "CCn1c(SCC(=O)Nc2sc3c(c2C(N)=O)CCC3)nnc1C1CC1", "note": "[1-G11, 2-{2-[(5-cyclopropyl-4-ethyl-4H-1,2,4-triazol-3-yl)sulfanyl]acetamido}-4H,5H,6H-cyclopenta[b]thiophene-3-carboxamide]", "values": [{"measurement": "potency relative to other compounds, in words", "setting": "Mfn2 null MEFs", "result": "more potent"}, {"measurement": "liver microsome stability, in words", "setting": "[3]", "result": "greater resistance to liver microsomal degradation"}]}
{"compound": "Cn1c(SCC(=O)Nc2sc3c(c2C(N)=O)CCC3)nnc1-c1ccccc1", "note": "[1-61, 2-{2-[(4-methyl-5-phenyl-4H-1,2,4-triazol-3-yl)sulfanyl]acetamido}-4H,5H,6H-cyclopenta[b]thiophene-3-carboxamide]", "values": [{"measurement": "potency relative to other compounds, in words", "setting": "Mfn2 null MEFs", "result": "more potent"}, {"measurement": "liver microsome stability, in words", "setting": "[3]", "result": "greater resistance to liver microsomal degradation"}]}
{"compound": "CC1CCCCC1NC(=O)NCCCc1nnc(C2CC2)n1-c1ccccc1", "note": "(centres unmarked) [Regeneurin-C, 1-(3-(5-cyclopropyl-4-phenyl-4H-1,2,4-triazol-3-yl)propyl)-3-(2-methylcyclohexyl)urea]", "values": [{"measurement": "passive diffusion across lipid-infused artificial membrane (PAMPA), in words", "setting": "[6]", "result": "excellent passive diffusion"}, {"measurement": "P-gp/MDR1 transport, in words", "setting": "P-gp/MDR1", "result": "actively transported by P-gp/MDR1"}, {"measurement": "total plasma drug concentration", "setting": "[7]", "result": "undetectable"}]}
{"compound": "CCn1c(CCCNC(=O)NC2CCOCC2)nnc1C1CC1", "note": "[Mitolityn-4, 1-(3-(5-cyclopropyl-4-ethyl-4H-1,2,4-triazol-3-yl)propyl)-3-(tetrahydro-2H-pyran-4-yl)urea]", "values": [{"measurement": "potency relative to other compounds, in words", "setting": "Mfn2 null MEFs", "result": "highest potency"}, {"measurement": "passive diffusion across lipid-infused artificial membrane (PAMPA), in words", "setting": "[6]", "result": "no passive diffusion across lipid membrane"}, {"measurement": "P-gp/MDR1 transport, in words", "setting": "P-gp/MDR1", "result": "no reverse transport by P-gp"}, {"measurement": "liver microsome stability, in words", "setting": "[3]", "result": "stability in the liver microsome assay"}]}
